#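 Cells were grown in 96-well plates and exposed to each compound for 48 hours at five concentrations; endpoints were interpolated linearly between bracketing concentrations, or set to the highest concentration if not reached. At the TGI there is no net growth.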
# Columns and labels:
# Experiment in all cases: NCI-60 cell line screen, 48 h
# CAKI-1 renal = test system: CAKI-1 renal
# TK-10 renal = test system: TK-10 renal
# ACHN renal = test system: ACHN renal
# UO-31 renal = test system: UO-31 renal
# HS 578T breast = test system: HS 578T breast
# NCI-H23 lung = test system: NCI-H23 lung
# KM12 colon = test system: KM12 colon
# HOP-62 NSCLC = test system: HOP-62 NSCLC
# RPMI-8226 leukemia = test system: RPMI-8226 leukemia
Structure (SMILES),TGI (CAKI-1 renal) [µM],TGI (TK-10 renal) [µM],TGI (ACHN renal) [µM],TGI (UO-31 renal) [µM],TGI (HS 578T breast) [µM],TGI (NCI-H23 lung) [µM],TGI (KM12 colon) [µM],TGI (HOP-62 NSCLC) [µM],TGI (RPMI-8226 leukemia) [µM]
CCn1nc2c3c(ncn3C(C)(C)O2)c1=O,> 100,> 100,> 100,> 100,> 100,> 100,> 100,> 100,> 100
CN(NC(=O)c1cccs1)C1=NCCCN1,,> 100,> 100,> 100,> 100,> 100,> 100,> 100,> 100
CC(=O)O[C@H]1C#C/C=C\C#CC[C@@H]2C(=O)N[C@@H]12,> 40.1,> 100,52.2,> 62.8,> 86.2,60.9,> 100,> 72.6,> 78.1
C1CNCCNCCN1,> 100,> 100,> 100,> 100,> 100,> 100,> 100,> 100,> 100
Cc1cn(C2CC(n3cc(Cn4cc(Br)c(=O)[nH]c4=O)nn3)C(CO)O2)c(=O)[nH]c1=O (stereo not given),> 100,> 100,> 100,> 100,> 100,> 100,> 100,> 100,> 100
Cc1ccc(/C(O)=C/C(=O)C(=O)/C=C(\O)c2ccc(C)cc2C)c(C)c1,3.69,3.45,3.65,3.65,5.15,3.5,3.44,3.24,4.59
CC1(CF)SCc2nc3ccccc3n21 (stereo not given),> 100,> 100,> 100,> 100,> 100,> 100,> 100,> 100,> 100
Nc1cccc(Nc2nc3ccccc3nc2NS(=O)(=O)c2ccccc2)c1,80.3,> 100,> 100,50.4,> 100,42.6,41.7,96.2,52.5
O=C(NCCCCCCNCc1cccc2ccccc12)Nc1cccc2ccccc12,> 100,> 100,> 100,> 100,> 100,> 100,> 100,> 100,> 100
CN(O)C(=O)c1cccc(Cl)c1,> 100,> 100,> 100,> 100,> 100,> 100,> 100,> 100,> 100
CNC(=O)Oc1ccc(-c2cn3cc(OC(=O)NC)ccc3n2)cc1,> 100,> 100,> 100,> 100,,> 100,> 100,> 100,81.9
C/C=C/C(O)P1(=O)N(Cc2ccccc2)[C@@H]2CCCC[C@H]2N1Cc1ccccc1 (stereo not given in full),> 25,> 25,> 25,> 25,> 25,> 25,> 25,> 25,

# Reference: PubChem BioAssay (NCI)
